Experimental data as given in patent publication US20090197955A1, “METHODS OF IMPROVING DHA DEPOSITION AND RELATED FUNCTION AND/OR DEVELOPMENT” (Monsanto Company, priority 2008, published 2009).

Assay: Fatty acid composition of pig tissues (ham, loin, belly, skin) after feeding SDA ethyl ester diets, 35 day study
Format: in vivo, pigs
Conditions: 35 days
Protocol: A 35 day study was conducted to determine whether pigs fed a diet containing SDA could enhance tissues with improved fatty acid profiles including increased levels of SDA, EPA, and DHA.
Four test diets (Treatment 2, 3, 4, and 5) with SDA ethyl ester substituted for corn oil to provide 0.2, 0.4, 0.6 and 0.8% (w/w SDA active ingredient, as-is basis) were fed ad libitum to one pen of four pigs throughout the 35-day test period Table 4). All diets were fed in meal form. Treatment 6 was fed the same diet as Treatment 5, but for a duration of only 21 days.
All pigs were individually weighed at initiation of the acclimation and test period, and immediately prior to slaughter. Feed consumption per pen was recorded. Upon completion of the feeding period, pigs were slaughtered for tissue collection and carcass evaluation. Pigs were slaughtered using standard industry practices (electrical stunning, exsanguinations, scalding, dehairing and evisceration). Live weights prior to slaughter and hot carcass weights were recorded. The left side of each carcass was fabricated and samples were obtained from the loin (longissimus muscle), ham (semimembranosus muscle) and belly (a section from the center of the belly) for sensory evaluation, fatty acid, and proximate analysis. Prior to removing the sample for sensory and fatty and proximate analysis from the belly the firmness of the belly was evaluated using a flop test. At 24 hr postmortem fat thickness (10th rib), loin eye area (10th rib), visual color, firmness and marbling, Minolta color (L*a*b*), pH, and drip loss were measured.
In order to evaluate the fatty acid composition of pig tissues (loin, ham, skin, and belly), samples were stored at −80° C. until evaluation. After thawing, ˜22 g of fresh pig tissue was chopped into small pieces and thoroughly mixed before 10 g was sub sampled and lyophilized. Lyophilized samples were ground in 30 ml Sarstedt tubes with two ball bearings using a Mega Grinder. Ground samples (loin and ham: 50 mg; skin: 100 mg; belly: 150 mg; diet: 500 mg) were directly methylated with sulfuric acid in methanol (loin and ham: 1 mL; skin: 3 mL; belly: 10 mL; diet: 1.5 mL) sealed in the presence of butylated hydroxytoluene (50 mg BHT in 100 ml reagent) in reflux conditions of 90° C. Resultant fatty acid methyl esters (FAME's) were separated by capillary gas chromatography (GC) and detected by flame ionization detector (FID). The column used was a Supelco Omegawax 250 capillary column with dimensions of 30 m×0.25 mm×0.25 μm film thickness. The run time was 32 minutes. Peaks were identified based on their relative retention time compared to a FAME reference mixture. Quantification was achieved by using an internal standard (c15:0 triacylglyceride (TAG) for pig tissue samples and c17:0 TAG for diet samples). Results are reported as FA g/100 g fat with theoretical response correction.
For Table 6 below, each value represents g/100 g total fatty acids a mean of 4 samples (1 sample from each of 4 pigs) per treatment.

CC/C=C\C/C=C\C/C=C\C/C=C\CCCCC(=O)O [SDA, stearidonic acid]
12:0, ham (0.2% SDA feed): 0.06 g FA per 100 g fat | 14:0, ham (0.2% SDA feed): 1.06 g FA per 100 g fat | 16:0, ham (0.2% SDA feed): 21.24 g FA per 100 g fat | 16:1 n-7, ham (0.2% SDA feed): 3.58 g FA per 100 g fat | 16:1 n-9, ham (0.2% SDA feed): 0.26 g FA per 100 g fat | 18:0, ham (0.2% SDA feed): 10.13 g FA per 100 g fat | 18:1 n-7, ham (0.2% SDA feed): 4.55 g FA per 100 g fat | 18:1 n-9, ham (0.2% SDA feed): 40.91 g FA per 100 g fat | 18:2 n-6 (LA), ham (0.2% SDA feed): 8.86 g FA per 100 g fat | 18:3 n-3 (ALA), ham (0.2% SDA feed): 0.20 g FA per 100 g fat | 18:3 n-6 (GLA), ham (0.2% SDA feed): 0.08 g FA per 100 g fat | 18:4 n-3 (SDA), ham (0.2% SDA feed): 0.03 g FA per 100 g fat | 20:0, ham (0.2% SDA feed): 0.16 g FA per 100 g fat | 20:1 n-7, ham (0.2% SDA feed): 0.04 g FA per 100 g fat | 20:1 n-9, ham (0.2% SDA feed): 0.69 g FA per 100 g fat | 20:1 n-11, ham (0.2% SDA feed): 0.04 g FA per 100 g fat | 20:2 n-6, ham (0.2% SDA feed): 0.38 g FA per 100 g fat | 20:3 n-3, ham (0.2% SDA feed): 0.03 g FA per 100 g fat | 20:3 n-6 (DGLA), ham (0.2% SDA feed): 0.29 g FA per 100 g fat | 20:4 n-3 (ETA), ham (0.2% SDA feed): 0.09 g FA per 100 g fat | 20:4 n-6 (AA), ham (0.2% SDA feed): 1.96 g FA per 100 g fat | 20:5 n-3 (EPA), ham (0.2% SDA feed): 0.17 g FA per 100 g fat | 22:0, ham (0.2% SDA feed): 0.03 g FA per 100 g fat | 22:1 n-9, ham (0.2% SDA feed): 0.00 g FA per 100 g fat | 22:1 n-11, ham (0.2% SDA feed): 0.00 g FA per 100 g fat | 22:1 n-13, ham (0.2% SDA feed): 0.00 g FA per 100 g fat | 22:2 n-7, ham (0.2% SDA feed): 0.00 g FA per 100 g fat | 22:3 n-6, ham (0.2% SDA feed): 0.24 g FA per 100 g fat | 22:5 n-3 (DPA), ham (0.2% SDA feed): 0.39 g FA per 100 g fat | 22:6 n-3 (DHA), ham (0.2% SDA feed): 0.09 g FA per 100 g fat | 24:1 n-9, ham (0.2% SDA feed): 0.04 g FA per 100 g fat | Total PUFA, ham (0.2% SDA feed): 12.82 g FA per 100 g fat | Total monoenes, ham (0.2% SDA feed): 50.11 g FA per 100 g fat | Total n-3, ham (0.2% SDA feed): 1.01 g FA per 100 g fat | Total n-6, ham (0.2% SDA feed): 11.81 g FA per 100 g fat | Total saturates, ham (0.2% SDA feed): 32.68 g FA per 100 g fat | n-6/n-3, ham (0.2% SDA feed): 11.69 | DHA enrichment in ham (0.2-0.8% SDA): enriched in ham in a dose dependent manner | DPA enrichment in loin and ham tissues (0.2-0.8% SDA): enriched in loin and ham tissues in a dose dependent manner | SDA, ETA and EPA enrichment in belly, loin, ham and skin tissues (0.2-0.8% SDA): enriched in belly, loin, ham, and skin tissues in a dose dependent manner | 12:0, ham (0.4% SDA feed): 0.06 g FA per 100 g fat | 14:0, ham (0.4% SDA feed): 1.10 g FA per 100 g fat | 16:0, ham (0.4% SDA feed): 21.45 g FA per 100 g fat | 16:1 n-7, ham (0.4% SDA feed): 3.45 g FA per 100 g fat | 16:1 n-9, ham (0.4% SDA feed): 0.25 g FA per 100 g fat | 18:0, ham (0.4% SDA feed): 10.74 g FA per 100 g fat | 18:1 n-7, ham (0.4% SDA feed): 4.28 g FA per 100 g fat | 18:1 n-9, ham (0.4% SDA feed): 39.94 g FA per 100 g fat | 18:2 n-6 (LA), ham (0.4% SDA feed): 9.18 g FA per 100 g fat | 18:3 n-3 (ALA), ham (0.4% SDA feed): 0.26 g FA per 100 g fat | 18:3 n-6 (GLA), ham (0.4% SDA feed): 0.09 g FA per 100 g fat | 18:4 n-3 (SDA), ham (0.4% SDA feed): 0.03 g FA per 100 g fat | 20:0, ham (0.4% SDA feed): 0.16 g FA per 100 g fat | 20:1 n-7, ham (0.4% SDA feed): 0.04 g FA per 100 g fat | 20:1 n-9, ham (0.4% SDA feed): 0.66 g FA per 100 g fat | 20:1 n-11, ham (0.4% SDA feed): 0.04 g FA per 100 g fat | 20:2 n-6, ham (0.4% SDA feed): 0.36 g FA per 100 g fat | 20:3 n-3, ham (0.4% SDA feed): 0.04 g FA per 100 g fat | 20:3 n-6 (DGLA), ham (0.4% SDA feed): 0.32 g FA per 100 g fat | 20:4 n-3 (ETA), ham (0.4% SDA feed): 0.14 g FA per 100 g fat | 20:4 n-6 (AA), ham (0.4% SDA feed): 1.90 g FA per 100 g fat | 20:5 n-3 (EPA), ham (0.4% SDA feed): 0.23 g FA per 100 g fat | 22:0, ham (0.4% SDA feed): 0.04 g FA per 100 g fat | 22:1 n-9, ham (0.4% SDA feed): 0.01 g FA per 100 g fat | 22:1 n-11, ham (0.4% SDA feed): 0.00 g FA per 100 g fat | 22:1 n-13, ham (0.4% SDA feed): 0.00 g FA per 100 g fat | 22:2 n-7, ham (0.4% SDA feed): 0.00 g FA per 100 g fat | 22:3 n-6, ham (0.4% SDA feed): 0.26 g FA per 100 g fat | 22:5 n-3 (DPA), ham (0.4% SDA feed): 0.44 g FA per 100 g fat | 22:6 n-3 (DHA), ham (0.4% SDA feed): 0.08 g FA per 100 g fat
